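Dose response: 5 concentrations. Exposure: 48 h. Format: 96-well plates. Endpoint: linear interpolation; highest concentration if not reached. GI50 marks 50% less growth. Definition used: TGI = concentration required for complete inhibition of growth.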
Key:
Assay in all cases: NCI anticancer screen, dose series, 48 h
HCT-116 colon = test system: HCT-116 colon
SK-MEL-2 melanoma = test system: SK-MEL-2 melanoma
T-47D breast = test system: T-47D breast
SK-MEL-28 melanoma = test system: SK-MEL-28 melanoma
MDA-MB-468 breast = test system: MDA-MB-468 breast
SN12C renal = test system: SN12C renal
U251 CNS = test system: U251 CNS
HL-60(TB) leukemia = test system: HL-60(TB) leukemia
A498 renal = test system: A498 renal
OVCAR-8 ovarian = test system: OVCAR-8 ovarian
HCT-15 colon = test system: HCT-15 colon
HCC-2998 colon = test system: HCC-2998 colon
MOLT-4 leukemia = test system: MOLT-4 leukemia
OVCAR-3 ovarian = test system: OVCAR-3 ovarian
RPMI-8226 leukemia = test system: RPMI-8226 leukemia
786-0 renal = test system: 786-0 renal
PC-3 prostate = test system: PC-3 prostate
M14 melanoma = test system: M14 melanoma
SF-539 CNS = test system: SF-539 CNS
CCRF-CEM leukemia = test system: CCRF-CEM leukemia
HOP-92 NSCLC = test system: HOP-92 NSCLC
K-562 leukemia = test system: K-562 leukemia
HT29 colon = test system: HT29 colon
DU-145 prostate = test system: DU-145 prostate
RXF 393 renal = test system: RXF 393 renal
CAKI-1 renal = test system: CAKI-1 renal
MALME-3M melanoma = test system: MALME-3M melanoma
NCI-H226 lung = test system: NCI-H226 lung
NCI-H522 lung = test system: NCI-H522 lung
MCF7 breast = test system: MCF7 breast

In the case of `Cc1ccc(C2CC(c3ccc(NC(=O)Nc4ccccc4)cc3)=NN2c2ccc(S(C)(=O)=O)cc2)cc1` (centres undefined), the TGI (HCT-116 colon) is reported as 3.56 µM, the GI50 (SK-MEL-2 melanoma) is reported as 7.39 µM and the TGI (SK-MEL-2 melanoma) is reported as 22.3 µM. The GI50 (T-47D breast) was 3.02 µM, the TGI (T-47D breast) was 11.1 µM and the GI50 (SK-MEL-28 melanoma) was 3.39 µM. For the same compound, the TGI (SK-MEL-28 melanoma) was 11.9 µM, the GI50 (MDA-MB-468 breast) was 2.09 µM and the TGI (MDA-MB-468 breast) was 5.66 µM. The GI50 (SN12C renal) was 1.69 µM, the TGI (SN12C renal) was 3.16 µM and the GI50 (U251 CNS) was 4.36 µM. For the same compound, the TGI (U251 CNS) was 17.1 µM, the GI50 (HL-60(TB) leukemia) was 2.09 µM and the TGI (HL-60(TB) leukemia) was 6.11 µM. The GI50 (A498 renal) was 2.73 µM, the TGI (A498 renal) was 6.97 µM and the GI50 (OVCAR-8 ovarian) was 4.83 µM. For the same compound, the TGI (OVCAR-8 ovarian) was 21.7 µM, the GI50 (HCT-15 colon) was 1.95 µM and the TGI (HCT-15 colon) was 5.4 µM. For the same compound, the GI50 (HCC-2998 colon) was 2.38 µM, the TGI (HCC-2998 colon) was 6.27 µM and the GI50 (MOLT-4 leukemia) was 2.42 µM. The TGI (MOLT-4 leukemia) was 8.14 µM, the GI50 (OVCAR-3 ovarian) was 1.93 µM and the TGI (OVCAR-3 ovarian) was 4.47 µM. For the same compound, the GI50 (RPMI-8226 leukemia) was 2.48 µM, the TGI (RPMI-8226 leukemia) was 7.98 µM and the GI50 (786-0 renal) was 2.24 µM. For the same compound, the TGI (786-0 renal) was 6.1 µM, the GI50 (PC-3 prostate) was 2.82 µM and the TGI (PC-3 prostate) was 11.8 µM. It also gave a GI50 (M14 melanoma) of 3.28 µM, a TGI (M14 melanoma) of 12.6 µM and a GI50 (SF-539 CNS) of 2.28 µM. The TGI (SF-539 CNS) was 6.05 µM, the GI50 (CCRF-CEM leukemia) was 2.53 µM and the TGI (CCRF-CEM leukemia) was 6.98 µM. For the same compound, the GI50 (HOP-92 NSCLC) was 2.35 µM, the TGI (HOP-92 NSCLC) was 8.22 µM and the GI50 (K-562 leukemia) was 3.14 µM. It also gave a TGI (K-562 leukemia) of 70.9 µM, a GI50 (HT29 colon) of 1.91 µM and a TGI (HT29 colon) of 4.97 µM. For the same compound, the GI50 (DU-145 prostate) was 4.43 µM, the TGI (DU-145 prostate) was 18.2 µM and the GI50 (RXF 393 renal) was 1.84 µM. The TGI (RXF 393 renal) was 5.08 µM, the GI50 (CAKI-1 renal) was 3.34 µM and the TGI (CAKI-1 renal) was 11.6 µM. For the same compound, the GI50 (MALME-3M melanoma) was 2.47 µM, the TGI (MALME-3M melanoma) was 8.74 µM and the GI50 (NCI-H226 lung) was 2.41 µM. For the same compound, the TGI (NCI-H226 lung) was 7.04 µM, the GI50 (NCI-H522 lung) was 2.24 µM and the TGI (NCI-H522 lung) was 10.6 µM. For the same compound, the GI50 (MCF7 breast) was 2.11 µM and the TGI (MCF7 breast) was 6.79 µM.

— PubChem BioAssay (NCI)
